The values below come from patent publication US20090176807A1, “GLUCOCORTICOID MIMETICS, METHODS OF MAKING THEM, PHARMACEUTICAL COMPOSITIONS, AND USES THEREOF” (priority 2005, published 2009).

The target in series [1] is T1, human glucocorticoid receptor (GR) complex (Homo sapiens, UniProt P04150).
T1 construct: made in house; host or cells: insect expression system (baculovirus lysate)
T1 sequence (P04150 1-777): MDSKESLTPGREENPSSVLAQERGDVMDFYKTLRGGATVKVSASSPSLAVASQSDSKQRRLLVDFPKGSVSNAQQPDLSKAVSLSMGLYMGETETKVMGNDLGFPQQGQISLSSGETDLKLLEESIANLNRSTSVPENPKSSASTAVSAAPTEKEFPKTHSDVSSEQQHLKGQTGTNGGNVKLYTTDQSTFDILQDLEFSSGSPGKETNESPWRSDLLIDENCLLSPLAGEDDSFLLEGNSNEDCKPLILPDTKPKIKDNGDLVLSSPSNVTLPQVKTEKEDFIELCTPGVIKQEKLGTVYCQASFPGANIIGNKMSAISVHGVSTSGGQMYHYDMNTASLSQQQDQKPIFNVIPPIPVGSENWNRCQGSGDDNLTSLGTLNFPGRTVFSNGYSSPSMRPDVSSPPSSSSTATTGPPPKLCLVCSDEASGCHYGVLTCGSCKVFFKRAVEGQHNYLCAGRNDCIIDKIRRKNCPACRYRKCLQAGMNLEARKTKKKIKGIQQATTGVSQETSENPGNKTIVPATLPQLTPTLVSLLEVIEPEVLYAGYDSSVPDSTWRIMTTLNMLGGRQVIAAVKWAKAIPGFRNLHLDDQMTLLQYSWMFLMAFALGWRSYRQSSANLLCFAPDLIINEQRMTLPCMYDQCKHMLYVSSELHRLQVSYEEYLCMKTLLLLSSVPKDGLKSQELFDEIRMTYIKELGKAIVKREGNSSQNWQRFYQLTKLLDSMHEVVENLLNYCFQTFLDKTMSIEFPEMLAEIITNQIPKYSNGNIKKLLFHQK
The series is described as follows: Glucocorticoid receptor competitive binding assay (fluorescence polarization). The following applies: competition with TAMRA-labeled dexamethasone, result in words only. As to the method:
Compounds of the invention were evaluated for binding to the steroid receptor by a fluorescence polarization competitive binding assay.
The wavelengths for maximum excitation and emission of the fluorescent probe should first be measured. An example of such a probe is rhodamine (TAMRA)-labeled dexamethasone.
The affinity of the probe for the steroid receptor was then determined in a titration experiment. The fluorescence polarization value of the probe in assay buffer was measured on an SLM-8100 fluorometer using the excitation and emission maximum values described above. Aliquots of expression vector lysate were added and fluorescence polarization was measured after each addition until no further change in polarization value was observed. Non-linear least squares regression analysis was used to calculate the dissociation constant of the probe from the polarization values obtained for lysate binding to the probe.
This assay uses fluorescence polarization (FP) to quantitate the ability of test compounds to compete with tetramethyl rhodamine (TAMRA)-labeled dexamethasone for binding to a human glucocorticoid receptor (GR) complex prepared from an insect expression system. The assay buffer was: 10 mM TES, 50 mM KCl, 20 mM Na2MoO4.2H2O, 1.5 mM EDTA, 0.04% w/v CHAPS, 10% v/v glycerol, 1 mM dithiothreitol, pH 7.4. Test compounds were dissolved to 1 mM in neat DMSO and then further diluted to 10× assay concentration in assay buffer supplemented with 10% v/v DMSO. Test compounds were serially diluted at 10× assay concentrations in 10% DMSO-containing buffer in 96-well polypropylene plates. Binding reaction mixtures were prepared in 96-well black Dynex microtiter plates by sequential addition of the following assay components to each well: 15 μL of 10× test compound solution, 85 μL of GR-containing baculovirus lysate diluted 1:170 in assay buffer, and 50 μL of 15 nM TAMRA-labeled dexamethasone. Positive controls were reaction mixtures containing no test compound; negative controls (blanks) were reaction mixtures containing 0.7 μM to 2 μM dexamethasone. […] IC50 values were determined by iterative non-linear curve fitting of the FP signal data to a 4-parameter logistic equation.
Background: Fluorescence polarisation rises when a labelled molecule tumbles more slowly, as on binding a larger partner.

Series [2] has as its system Human osteosarcoma MG-63 cells. Put plainly: Inhibition of osteocalcin production from osteoblast cell line MG-63. The following applies: Vitamin D 10 nM, 48 hours, osteocalcin ELISA, result in words only. It is filed as cell-based. As for the experimental part: Human osteosarcoma MG-63 cells (ATCC, Cat. No. CRL-1427) are plated on 96 well plates at 20,000 cells per well the day before use in 200 μL media of 99% D-MEM/F-12 (Gibco-Invitrogen, Cat. No. 11039-021), supplemented with 1% penicillin and streptomycin (Gibco-Invitrogen, Cat. No. 15140-122), 10 μg/mL Vitamin C (Sigma, Cat. No. A-4544), and 1% charcoal filtered Fetal Bovine Serum (HyClone, Cat. No. SH30068.02). The next day, wells are replaced with fresh media. Cells are treated with Vitamin D (Sigma, Cat. No. D1530) to a final concentration of 10 nM, and with the test compounds in concentrations of 10^−6 M to 10^−9 M, in a total volume of 200 μL per well. Samples are done in duplicates. […] Positive control wells receive Vitamin D only, without compounds, and represent maximum (100%) amount of osteocalcin production. Plates are incubated at 37° C. incubator for 48 hours and supernatants are harvested at the end of incubation. Amounts of osteocalcin in the supernatants are determined by the Glype osteocalcin ELISA kit (Zymed, Cat. No. 99-0054) according to manufacture's protocol. Inhibition of osteocalcin by test compounds is expressed in percentage relative to positive controls. IC50 values of the test compounds are derived by non-lineal curve fitting.

Regarding `CC(C)(CC(O)(Cn1cc(Cl)c(=O)c2cnccc21)C(F)(F)F)c1cccc2c1OCC2` (stereo not shown) [3-Chloro-1-[4-(2,3-dihydrobenzofuran-7-yl)-2-hydroxy-4-methyl-2-trifluoromethylpentyl]-1H-[1,6]naphthyridin-4-one], the melting point was 158 to 160 °C. In addition, the “activity in the GR binding assay” value in series [1] is given as “potent activity”.

`CC(C)(CC(O)(Cn1cc(Br)c(=O)c2sccc21)C(F)(F)F)c1cccc2c1OCO2` (stereo not shown) [4-(4-Benzo[1,3]dioxol-4-yl-2-hydroxy-4-methyl-2-trifluoromethylpentyl)-6-bromo-4H-thieno[3,2-b]pyridin-7-one]: the melting point is 197 to 198 °C. The “activity in the GR binding assay” value in series [1] was “potent activity”.

As for `CC(C)(CC(O)(Cn1ccc(=O)c2sccc21)C(F)(F)F)c1cc(-c2cccnc2)ccc1O` (stereo not shown) [4-[2-Hydroxy-4-(2-hydroxy-5-pyridin-3-ylphenyl)-4-methyl-2-trifluoromethylpentyl]-4H-thieno[3,2-b]pyridin-7-one], the “inhibition of the vitamin D stimulated production of osteocalcin” value (from here on “inhibition … of osteocalcin”) in series [2] was “inhibit the vitamin D stimulated production of osteocalcin”. For the same molecule, the “activity in the GR binding assay” value in series [1] is reported as “potent activity”.

For the molecule `CC(C)(CC(O)(Cn1ccc(=O)c2sccc21)C(F)(F)F)c1cc(F)ccc1O` (stereo not shown) [4-[4-(5-Fluoro-2-hydroxyphenyl)-2-hydroxy-4-methyl-2-trifluoromethylpentyl]-4H-thieno[3,2-b]pyridin-7-one], the “inhibition … of osteocalcin” value in series [2] is “inhibit the vitamin D stimulated production of osteocalcin”. Also, the “activity in the GR binding assay” value in series [1] is “potent activity”.

In the case of `CC(C)(CC(O)(Cn1cc(Cl)c(=O)c2sccc21)C(F)(F)F)c1cc(-c2cccnc2)ccc1O` (stereo not shown) [6-Chloro-4-[2-hydroxy-4-(2-hydroxy-5-pyridin-3-ylphenyl)-4-methyl-2-trifluoromethylpentyl]-4H-thieno[3,2-b]pyridin-7-one], the “inhibition … of osteocalcin” value in series [2] is given as “inhibit the vitamin D stimulated production of osteocalcin”. Besides, the “activity in the GR binding assay” value in series [1] is “potent activity”.

On to `CC(C)(CC(O)(Cn1cc(Cl)c(=O)c2sccc21)C(F)(F)F)c1cc(-c2cncnc2)ccc1O` (stereo not shown) [6-Chloro-4-[2-hydroxy-4-(2-hydroxy-5-pyrimidin-5-ylphenyl)-4-methyl-2-trifluoromethylpentyl]-4H-thieno[3,2-b]pyridin-7-one], for which the “inhibition … of osteocalcin” value in series [2] is listed as “inhibit the vitamin D stimulated production of osteocalcin”. Moreover, the “activity in the GR binding assay” value in series [1] is recorded as “potent activity”.

Consider `COc1ccc(-c2cncnc2)cc1C(C)(C)CC(O)(Cn1cc(Cl)c(=O)c2sccc21)C(F)(F)F` (stereo not shown) [6-Chloro-4-[2-hydroxy-4-(2-methoxy-5-pyrimidin-5-ylphenyl)-4-methyl-2-trifluoromethylpentyl]-4H-thieno[3,2-b]pyridin-7-one], for which the “activity in the GR binding assay” value in series [1] is “potent activity”.

For `CC(C)(CC(O)(Cn1cc(Cl)c(=O)c2sccc21)C(F)(F)F)c1cc(-c2cccnc2)cc2c1OCC2` (stereo not shown) [6-Chloro-4-[2-hydroxy-4-methyl-4-(5-pyridin-3-yl-2,3-dihydrobenzofuran-7-yl)-2-trifluoromethylpentyl]-4H-thieno[3,2-b]pyridin-7-one], the “activity in the GR binding assay” value in series [1] was “potent activity”.

Turning to `CC(C)(CC(O)(Cn1cc(Cl)c(=O)c2sccc21)C(F)(F)F)c1cc(-c2cncnc2)cc2c1OCC2` (stereo not shown) [6-Chloro-4-[2-hydroxy-4-methyl-4-(5-pyrimidin-5-yl-2,3-dihydrobenzofuran-7-yl)-2-trifluoromethylpentyl]-4H-thieno[3,2-b]pyridin-7-one], the “activity in the GR binding assay” value in series [1] is on record as “potent activity”.

On to `CC(C)(CC(O)(Cn1cc(Cl)c(=O)c2sccc21)C(F)(F)F)c1cccc2c1OCC2` (stereo not shown) [6-Chloro-4-[4-(2,3-dihydrobenzofuran-7-yl)-2-hydroxy-4-methyl-2-trifluoromethylpentyl]-4H-thieno[3,2-b]pyridin-7-one], for which the “activity in the GR binding assay” value in series [1] is on record as “potent activity”.

For orientation: melting point means the temperature of the solid-liquid transition.
